Legend:
Clostridium = details: in the fermentation medium
[1] = test system: butanol-producing Clostridium strain; type: cell-based

SMILES | concentration at which it becomes inhibitory to growth of Clostridium and subsequent production of butanol (Clostridium) [g/L] | transformation of un-fermentable hydrolysate into fermentable feedstock supporting microbial growth and butanol production ([1]; 2 g/L to 5 g/L metal salt, pH 9 to 10.5, 20° C. to 40° C.) | butanol concentration after microbial fermentation for 72 hours ([1]; hydrolysate treated with 3 g/L […] or 2 g/l ferric chloride, pH 9.5, room temperature (about 20° C.), fermentation 10 ml, 30° C.) [g/L]
O=CO [Formic acid] | 0.3 to 0.4 | – | –
[Cl][Fe]([Cl])[Cl] [ferric chloride] | – | successful | 7.69

— US20110318798A1, “REMOVAL OF INHIBITORS OF MICROBIAL FE[…] INHIBITOR-CONTAINING COMPOSITIONS” (priority 2010, published 2011)
